Test: Phase I safety and tolerability (DLTs, adverse events, laboratory, ECG)
Format: in vivo
Details: for dose-limiting toxicity (DLT): one subject; for Any treatment-related adverse event (TRAE) / TRAE: Decreased appetite / TRAE: Diarrhoea / TRAE: Dysgeusia / TRAE: Fatigue / TRAE: Gastrointestinal disorders / TRAE: General disorders and administration site conditions / TRAE: Metabolism and nutrition disorders / TRAE: Nausea / TRAE: Nervous system disorders / TRAE: Vomiting: Definitely related; for Any treatment-emergent adverse event (TEAE) / TEAE: Abdominal distension / TEAE: Abdominal pain / TEAE: Back pain / TEAE: Blood and lymphatic system disorders / TEAE: Chills / TEAE: Constipation / TEAE: Cough / TEAE: Decreased appetite / TEAE: Diarrhoea / TEAE: Dizziness / TEAE: Dysgeusia / TEAE: Dyspnoea / TEAE: Fatigue / TEAE: Gastrointestinal disorders / TEAE: General disorders and administration site conditions / TEAE: Haematuria / TEAE: Headache / TEAE: Infections and infestations / TEAE: Investigations / TEAE: Metabolism and nutrition disorders / TEAE: Musculoskeletal and connective tissue disorders / TEAE: Nausea / TEAE: Nervous system disorders / TEAE: Oedema peripheral / TEAE: Psychiatric disorders / TEAE: Pyrexia / TEAE: Renal and urinary disorders / TEAE: Respiratory, thoracic, and mediastinal disorders / TEAE: Skin and subcutaneous tissue disorders / TEAE: Vomiting / TEAE: Weight decreased: Grade 1
Protocol: This study employed a standard 3 + 3 dose escalation design with a starting dose of 25 mg QD. […] Dose escalation decisions took into account all available data from evaluable subjects as well as PK and the safety profile of prior dose cohorts. […] There was a minimum 5-day stagger between dosing of the first and second subjects in each dose cohort. Dose escalation decisions were made by a data review committee (DRC) composed of, at minimum, the medical monitor, at least one principal investigator, and a sponsor representative, per the study DRC Plan. Dose escalation could continue until 2 or more subjects in the same dose cohort experienced a dose-limiting toxicity (DLT). DLTs were defined as Grade 3 or 4 adverse drug reactions (ADRs), with grades as defined in the National Cancer Institute Common Toxicity Criteria for Adverse Events (NCI-CTCAE) version 5.0. […] The MTD was defined as the highest dose at which no more than 1 of 6 subjects experienced a DLT during cycle 1 of the study drug. The MTD would have been exceeded if 2 or more subjects in a dose cohort of up to 6 subjects experienced a DLT. Subjects could continue treatment until disease progression, unacceptable toxicity, death, withdrawal of consent, or loss to follow-up.
Before enrolment in the study, all patients received a detailed medical history and physical examination. Clinical laboratory evaluations included clinical chemistry, complete blood count, urinalysis, coagulation factors, and a lipid panel. Other safety assessments included vital signs, physical examination, electrocardiogram, and echocardiogram with multigated acquisition (ECHO/MUGA). Safety assessments were performed on days 1, 8, 15, and 21 of cycle 1, and on day 1 of cycles 2 to 6.

SMILES: Nc1ncc(-c2cnn(C3CCNCC3)c2)cc1-c1nnc(CC2CC2)o1 [SLC-391, 3-(5-[cyclopropylmethyl]-1,3,4-oxadiazol-2-yl)-5-(1-[piperidin-4-yl]-1H-pyrazol-4-yl)-pyridin-2-amine]
- subjects with SAEs (110 mg BID (1/3)): 33.3%
- TEAEs leading to drug withdrawal or study discontinuation (150 mg BID): 16.7%
- subjects reporting Grade 3 TEAEs (150 mg BID): 50.0%
- DLTs and SAEs (150 mg BID (N = 6)): no DLTs or SAEs
- subjects reporting constipation (150 mg BID (N = 6)): 66.7%
- subjects reporting diarrhoea (150 mg BID (N = 6)): 66.7%
- subjects reporting dyspnoea (150 mg BID (N = 6)): 50.0%
- subjects reporting fatigue (150 mg BID (N = 6)): 83.3%
- subjects reporting nausea (150 mg BID (N = 6)): 83.3%
- subjects with SAEs (150 mg QD (3/6)): 50%
- subjects with SAEs (175 mg QD (1/2)): 50%
- dose-limiting toxicity (DLT) (175 mg QD (N = 2), SUSAR): Grade 3 haematochezia
- TEAEs leading to drug withdrawal or study discontinuation (200 mg BID): 66.7%
- subjects reporting Grade 3 TEAEs (200 mg BID): 66.7%
- subjects reporting constipation (200 mg BID (N = 3)): 66.7%
- subjects reporting decreased appetite (200 mg BID (N = 3)): 66.7%
- subjects reporting diarrhoea (200 mg BID (N = 3)): 66.7%
- subjects reporting dysgeusia (200 mg BID (N = 3)): 66.7%
- subjects reporting fatigue (200 mg BID (N = 3)): 66.7%
- subjects reporting headache (200 mg BID (N = 3)): 66.7%
- subjects reporting nausea (200 mg BID (N = 3)): 100.0%
- dose-limiting toxicity (DLT) (200 mg BID): Grade 3 thrombocytopenia associated with Grade 1 haematuria
- subjects with interrupted dosing who continued at a reduced dose (2/9 subjects): 22.2%
- maximum tolerated dose (MTD) (25-175 mg QD, 75-200 mg BID, 21-day cycles): not reached
- SAEs, subjects (BID cohorts): 6.7%
- TEAEs leading to treatment interruption or missed dose (BID cohorts): 40.0%
- TEAEs leading to treatment or study discontinuation, subjects (BID cohorts): 20.0%
- subjects with Grade 3 TEAEs (BID cohorts): 40.0%
- subjects with TRAEs (BID cohorts): 86.7%
- subjects with at least one TEAE (BID cohorts): 100.0%
- Any treatment-related adverse event (TRAE) (Overall BID (N = 15)): 5 (33.3%) n (%)
- TRAE: Decreased appetite (Overall BID (N = 15)): 2 (13.3%) n (%)
- TRAE: Diarrhoea (Overall BID (N = 15)): 2 (13.3%) n (%)
- TRAE: Dysgeusia (Overall BID (N = 15)): 1 (6.7%) n (%)
- TRAE: Fatigue (Overall BID (N = 15)): 1 (6.7%) n (%)
- TRAE: Gastrointestinal disorders (Overall BID (N = 15)): 5 (33.3%) n (%)
- TRAE: General disorders and administration site conditions (Overall BID (N = 15)): 1 (6.7%) n (%)
- TRAE: Metabolism and nutrition disorders (Overall BID (N = 15)): 2 (13.3%) n (%)
- TRAE: Nausea (Overall BID (N = 15)): 4 (26.7%) n (%)
- TRAE: Nervous system disorders (Overall BID (N = 15)): 1 (6.7%) n (%)
- TRAE: Vomiting (Overall BID (N = 15)): 3 (20.0%) n (%)
- Any treatment-related adverse event (TRAE) (Overall QD (N = 20)): 7 (35.0%) n (%)
- TRAE: Decreased appetite (Overall QD (N = 20)): 2 (10.0%) n (%)
- TRAE: Diarrhoea (Overall QD (N = 20)): 5 (25.0%) n (%)
- TRAE: Dysgeusia (Overall QD (N = 20)): 1 (5.0%) n (%)
- TRAE: Fatigue (Overall QD (N = 20)): 3 (15.0%) n (%)
- TRAE: Gastrointestinal disorders (Overall QD (N = 20)): 6 (30.0%) n (%)
- TRAE: General disorders and administration site conditions (Overall QD (N = 20)): 3 (15.0%) n (%)
- TRAE: Metabolism and nutrition disorders (Overall QD (N = 20)): 2 (10.0%) n (%)
- TRAE: Nausea (Overall QD (N = 20)): 4 (20.0%) n (%)
- TRAE: Nervous system disorders (Overall QD (N = 20)): 1 (5.0%) n (%)
- TRAE: Vomiting (Overall QD (N = 20)): 5 (25.0%) n (%)
- Any treatment-related adverse event (TRAE) (Overall Study (N = 35)): 12 (34.3%) n (%)
- TRAE: Decreased appetite (Overall Study (N = 35)): 4 (11.4%) n (%)
- TRAE: Diarrhoea (Overall Study (N = 35)): 7 (20.0%) n (%)
- TRAE: Dysgeusia (Overall Study (N = 35)): 2 (5.7%) n (%)
- TRAE: Fatigue (Overall Study (N = 35)): 4 (11.4%) n (%)
- TRAE: Gastrointestinal disorders (Overall Study (N = 35)): 11 (31.4%) n (%)
- TRAE: General disorders and administration site conditions (Overall Study (N = 35)): 4 (11.4%) n (%)
- TRAE: Metabolism and nutrition disorders (Overall Study (N = 35)): 4 (11.4%) n (%)
- TRAE: Nausea (Overall Study (N = 35)): 8 (22.9%) n (%)
- TRAE: Nervous system disorders (Overall Study (N = 35)): 2 (5.7%) n (%)
- TRAE: Vomiting (Overall Study (N = 35)): 8 (22.9%) n (%)
- Any treatment-emergent adverse event (TEAE) (Overall BID (N = 15)): 2 (13.3) n (%)
- TEAE: Abdominal distension (Overall BID (N = 15)): 2 (13.3) n (%)
- TEAE: Abdominal pain (Overall BID (N = 15)): 0 n (%)
- TEAE: Back pain (Overall BID (N = 15)): 0 n (%)
- TEAE: Blood and lymphatic system disorders (Overall BID (N = 15)): 1 (6.7) n (%)
- TEAE: Chills (Overall BID (N = 15)): 4 (26.7) n (%)
- TEAE: Constipation (Overall BID (N = 15)): 5 (33.3) n (%)
- TEAE: Cough (Overall BID (N = 15)): 2 (13.3) n (%)
- TEAE: Decreased appetite (Overall BID (N = 15)): 1 (6.7) n (%)
- TEAE: Diarrhoea (Overall BID (N = 15)): 6 (40.0) n (%)
- TEAE: Dizziness (Overall BID (N = 15)): 0 n (%)
- TEAE: Dysgeusia (Overall BID (N = 15)): 0 n (%)
- TEAE: Dyspnoea (Overall BID (N = 15)): 0 n (%)
- TEAE: Fatigue (Overall BID (N = 15)): 4 (26.7) n (%)
- TEAE: Gastrointestinal disorders (Overall BID (N = 15)): 7 (46.7) n (%)
- TEAE: General disorders and administration site conditions (Overall BID (N = 15)): 5 (33.3) n (%)
- TEAE: Haematuria (Overall BID (N = 15)): 3 (20.0) n (%)
- TEAE: Headache (Overall BID (N = 15)): 3 (20.0) n (%)
- TEAE: Infections and infestations (Overall BID (N = 15)): 1 (6.7) n (%)
- TEAE: Investigations (Overall BID (N = 15)): 2 (13.3) n (%)
- TEAE: Metabolism and nutrition disorders (Overall BID (N = 15)): 0 n (%)
- TEAE: Musculoskeletal and connective tissue disorders (Overall BID (N = 15)): 2 (13.3) n (%)
- TEAE: Nausea (Overall BID (N = 15)): 7 (46.7) n (%)
- TEAE: Nervous system disorders (Overall BID (N = 15)): 3 (20.0) n (%)
- TEAE: Oedema peripheral (Overall BID (N = 15)): 1 (6.7) n (%)
- TEAE: Psychiatric disorders (Overall BID (N = 15)): 1 (6.7) n (%)
- TEAE: Pyrexia (Overall BID (N = 15)): 2 (13.3) n (%)
- TEAE: Renal and urinary disorders (Overall BID (N = 15)): 3 (20.0) n (%)
- TEAE: Respiratory, thoracic, and mediastinal disorders (Overall BID (N = 15)): 2 (13.3) n (%)
- TEAE: Skin and subcutaneous tissue disorders (Overall BID (N = 15)): 2 (13.3) n (%)
- TEAE: Vomiting (Overall BID (N = 15)): 5 (33.3) n (%)
- TEAE: Weight decreased (Overall BID (N = 15)): 2 (13.3) n (%)
- Any treatment-emergent adverse event (TEAE) (Overall QD (N = 20)): 1 (5.0) n (%)
- TEAE: Abdominal distension (Overall QD (N = 20)): 2 (10.0) n (%)
- TEAE: Abdominal pain (Overall QD (N = 20)): 4 (20.0) n (%)
- TEAE: Back pain (Overall QD (N = 20)): 1 (5.0) n (%)
- TEAE: Blood and lymphatic system disorders (Overall QD (N = 20)): 0 n (%)
- TEAE: Chills (Overall QD (N = 20)): 2 (10.0) n (%)
- TEAE: Constipation (Overall QD (N = 20)): 5 (25.0) n (%)
- TEAE: Cough (Overall QD (N = 20)): 4 (20.0) n (%)
- TEAE: Decreased appetite (Overall QD (N = 20)): 6 (30.0) n (%)
- TEAE: Diarrhoea (Overall QD (N = 20)): 8 (40.0) n (%)
- TEAE: Dizziness (Overall QD (N = 20)): 4 (20.0) n (%)
- TEAE: Dysgeusia (Overall QD (N = 20)): 1 (5.0) n (%)
- TEAE: Dyspnoea (Overall QD (N = 20)): 2 (10.0) n (%)
- TEAE: Fatigue (Overall QD (N = 20)): 6 (30.0) n (%)
- TEAE: Gastrointestinal disorders (Overall QD (N = 20)): 8 (40.0) n (%)
- TEAE: General disorders and administration site conditions (Overall QD (N = 20)): 7 (35.0) n (%)
- TEAE: Haematuria (Overall QD (N = 20)): 1 (5.0) n (%)
- TEAE: Headache (Overall QD (N = 20)): 2 (10.0) n (%)
- TEAE: Infections and infestations (Overall QD (N = 20)): 0 n (%)
- TEAE: Investigations (Overall QD (N = 20)): 5 (25.0) n (%)
- TEAE: Metabolism and nutrition disorders (Overall QD (N = 20)): 5 (25.0) n (%)
- TEAE: Musculoskeletal and connective tissue disorders (Overall QD (N = 20)): 5 (25.0) n (%)
- TEAE: Nausea (Overall QD (N = 20)): 8 (40.0) n (%)
- TEAE: Nervous system disorders (Overall QD (N = 20)): 8 (40.0) n (%)
- TEAE: Oedema peripheral (Overall QD (N = 20)): 2 (10.0) n (%)
- TEAE: Psychiatric disorders (Overall QD (N = 20)): 2 (10.0) n (%)
- TEAE: Pyrexia (Overall QD (N = 20)): 2 (10.0) n (%)
- TEAE: Renal and urinary disorders (Overall QD (N = 20)): 0 n (%)
- TEAE: Respiratory, thoracic, and mediastinal disorders (Overall QD (N = 20)): 3 (15.0) n (%)
- TEAE: Skin and subcutaneous tissue disorders (Overall QD (N = 20)): 4 (20.0) n (%)
- TEAE: Vomiting (Overall QD (N = 20)): 8 (40.0) n (%)
- TEAE: Weight decreased (Overall QD (N = 20)): 4 (20.0) n (%)
- Any treatment-emergent adverse event (TEAE) (Overall Study (N = 35)): 3 (8.6) n (%)

— article PMC12736120, “First-in-Human Phase I Clinical Trial of SLC-391, a Novel and Selective AXL Inhibitor, in Patients with Advanced Solid Tumours” (Pharmaceuticals, 2025)
